Results on 12 compounds are retold here after ChEMBL document CHEMBL1201862, “PubChem BioAssay data set” (2004).

Structures are written as SMILES. Values joined by “and” are separate entries in the source; they are usually repeats but may differ in a detail not shown here. Identical values can stand only once.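 Compound exposure: 48 hours, 5 concentrations, 96-well plates. At the GI50, growth is halved.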 Active and inactive are the calls of the source. Rule as the data show it: active = GI50 up to about 1.1 µM and inactive = higher.

Some test systems named below: SK-OV-3; SF-295; OVCAR-4; MDA-MB-435; COLO 205; NCI-H23; NCI-H522; DU-145; OVCAR-3; A549; SNB-19; HOP-92; CCRF-CEM; SN12C; SF-268; SW-620; A498; SK-MEL-2.
Test in all cases: NCI anticancer screen, dose series, 48 h

With `Fc1nc(-c2c3ccccc3c3sc4ccccc4n23)nc(N2CCOCCOCCOCCOCC2)n1`, the GI50 with SK-OV-3 is 71 µM (inactive); in the test on SF-295 it was 63 µM (inactive); with OVCAR-4, > 100 µM (inactive); in the test on MDA-MB-435 it was > 100 µM (inactive); in the test on COLO 205, > 100 µM (inactive); in the test with NCI-H23 it was > 100 µM (inactive). The GI50 was > 100 µM (inactive) with NCI-H522; > 100 µM (inactive) in the test on DU-145; 63.1 µM (inactive) in the test on OVCAR-3; > 100 µM (inactive) in the test on A549; 35.6 µM (inactive) in the test with SNB-19; 20.9 µM (inactive) in the test with HOP-92. The GI50 with CCRF-CEM is 54.5 µM (inactive); in the test on SN12C, > 100 µM (inactive); in the test on SF-268, > 100 µM (inactive); in the test on SW-620, > 100 µM (inactive); in the test on A498, 91.4 µM (inactive).

Turning to `c1csc(-c2cscc2-c2cccs2)c1`, the GI50 in the test with SK-OV-3 was 32.9 µM (inactive); in the test with SF-295, 32.9 µM (inactive); in the test on OVCAR-4, 46 µM (inactive); in the test on MDA-MB-435, 33.4 µM (inactive); in the test on COLO 205 it was 50.8 µM (inactive); in the test with NCI-H23 it was 28.2 µM (inactive). The GI50 with DU-145 was 1.31 µM (inactive); in the test with OVCAR-3, 17.4 µM (inactive); in the test with A549, 39.4 µM (inactive); with SNB-19, > 100 µM (inactive); in the test on HOP-92, 78.5 µM (inactive); with CCRF-CEM it was 44.1 µM (inactive). Also, the GI50 was > 100 µM (inactive) in the test on SN12C, > 100 µM (inactive) in the test with SF-268, 48.3 µM (inactive) with SW-620 and > 100 µM (inactive) in the test with A498.

Turning to `CC(=O)OC1=C(CC(C)(C)C)C(=O)c2ccccc2C1=O`, the GI50 with SK-OV-3 is 25.3 µM (inactive); with SF-295, 22.7 µM (inactive); in the test with OVCAR-4 it was 37.8 µM (inactive); with MDA-MB-435, 21.7 µM (inactive); in the test with COLO 205, 23.6 µM (inactive); in the test with SK-MEL-2, 31.8 µM (inactive). Also, the GI50 in the test on NCI-H23 was 15.6 µM (inactive); in the test with DU-145, 46.7 µM (inactive); with SNB-19, 42.6 µM (inactive); with CCRF-CEM, 19.3 µM (inactive); in the test on SF-268 it was 21.6 µM (inactive); in the test with SW-620, 33 µM (inactive). Moreover, the GI50 with A498 was 13.5 µM (inactive).

As for `[O-][n+]1c2ccccc2[n+]([O-])c2ccccc21`, the GI50 in the test with SF-295 is > 100 µM (inactive); with OVCAR-4, > 100 µM (inactive); in the test on MDA-MB-435, > 100 µM (inactive); in the test with COLO 205, 15.6 µM (inactive); with SK-MEL-2, > 100 µM (inactive); with NCI-H23, 24 µM (inactive). Also, the GI50 was > 100 µM (inactive) in the test with NCI-H522; 45.4 µM (inactive) in the test with DU-145; 38 µM (inactive) in the test with A549; 86.3 µM (inactive) with SNB-19; 4.32 µM (inactive) with CCRF-CEM; > 100 µM (inactive) in the test on SN12C. Also, the GI50 with SF-268, in the test with SW-620 and in the test on A498 was > 100 µM (inactive) each time.

As to `CN(C)CCNC1=CC(=O)c2nc3ccccc3c3ccnc1c23`, the GI50 in the test with SK-OV-3 is 10.1 µM (inactive); in the test with SF-295, 4.47 µM (inactive); in the test on OVCAR-4, 3.57 µM (inactive); in the test with MDA-MB-435, 7.52 µM (inactive); in the test with COLO 205 it was 2.75 µM (inactive); in the test on SK-MEL-2 it was 7.38 µM (inactive). Also, the GI50 in the test on NCI-H23 is 5.56 µM (inactive); with NCI-H522 it was 2.94 µM (inactive); in the test with DU-145, 8.2 µM (inactive); in the test with OVCAR-3, 2.78 µM (inactive); in the test on A549 it was 4.52 µM (inactive); with SNB-19, 5.01 µM (inactive). Also, the GI50 with HOP-92 was 11.7 µM (inactive); in the test with CCRF-CEM, 3.88 µM (inactive); in the test with SN12C, 6.49 µM (inactive); with SF-268 it was 4.53 µM (inactive); with SW-620, 4.42 µM (inactive).

Take `N#Cc1c(N)c(C#N)c2c(c1-c1ccc(Cl)cc1)COc1ccccc1-2`: the GI50 with SK-OV-3 is 18.4 µM (inactive); in the test on OVCAR-4 it was 11.1 µM (inactive); with MDA-MB-435, 31.7 µM (inactive); in the test on COLO 205, 48 µM (inactive); in the test with SK-MEL-2, 22 µM (inactive); with NCI-H23, 16.7 µM (inactive). The GI50 in the test on DU-145 was 21.6 µM (inactive); in the test with OVCAR-3, 13.7 µM (inactive); in the test with A549, 14.5 µM (inactive); in the test on SNB-19, 14.5 µM (inactive); in the test with HOP-92, 15.3 µM (inactive); in the test on CCRF-CEM, 16.5 µM (inactive). Besides, the GI50 with SN12C is 12.4 µM (inactive); in the test with SF-268, 29.4 µM (inactive); with SW-620, 32.6 µM (inactive); with A498, 18.2 µM (inactive).

Turning to `CC(=O)C(=NNc1ccc(-n2c(C)nc3ccc(Br)cc3c2=O)cc1)C(C)=O`, the GI50 with SK-OV-3 was > 100 µM (inactive); in the test with SF-295, 98.6 µM (inactive); in the test on MDA-MB-435 it was > 100 µM (inactive); in the test on COLO 205, > 100 µM (inactive); in the test on SK-MEL-2, > 100 µM (inactive); in the test with NCI-H23 it was 70.8 µM (inactive). The GI50 in the test with DU-145 is 93.8 µM (inactive); in the test with OVCAR-3, > 100 µM (inactive); with A549 it was > 100 µM (inactive); in the test on SNB-19, 45.6 µM (inactive); in the test on HOP-92 it was 74.3 µM (inactive); in the test on CCRF-CEM, > 100 µM (inactive). Besides, the GI50 was > 100 µM (inactive) in the test on SN12C, 56.4 µM (inactive) in the test with SF-268, > 100 µM (inactive) in the test on SW-620 and > 100 µM (inactive) in the test on A498.

`COc1cccc(CCn2c(N)c(C(=O)O)c3ccc([N+](=O)[O-])cc3c2=O)c1`: the GI50 is 35.6 µM (inactive) with SK-OV-3; 38.1 µM (inactive) with SF-295; 54 µM (inactive) with OVCAR-4; 38.3 µM (inactive) in the test on MDA-MB-435; 20.7 µM (inactive) in the test on COLO 205; 22.6 µM (inactive) in the test on SK-MEL-2. Also, the GI50 was 19.5 µM (inactive) with NCI-H23; 28.3 µM (inactive) in the test on NCI-H522; 40.2 µM (inactive) in the test on DU-145; 29.4 µM (inactive) in the test on OVCAR-3; 27.8 µM (inactive) in the test with A549; 39.1 µM (inactive) in the test with SNB-19. Besides, the GI50 in the test with CCRF-CEM is > 100 µM (inactive); in the test with SN12C, 21.8 µM (inactive); with SF-268 it was 37.7 µM (inactive); in the test with SW-620, > 100 µM (inactive); in the test with A498, 40.5 µM (inactive).

`CC(C)C(/C=C/c1ccc(Cl)c(Cl)c1)=N\NC(=O)N/N=C(/C=C/c1ccc(Cl)c(Cl)c1)C(C)C`: the GI50 in the test on SK-OV-3, in the test with SF-295, in the test with OVCAR-4, in the test with MDA-MB-435, in the test on COLO 205 and in the test with NCI-H23 was > 100 µM (inactive) in each case. The GI50 with NCI-H522, in the test with DU-145, in the test on OVCAR-3, with SNB-19, with HOP-92 and in the test on CCRF-CEM was > 100 µM (inactive) in each case. Besides, the GI50 in the test on SN12C, with SF-268, with SW-620 and with A498 was > 100 µM (inactive) throughout.

As for `CC(=O)OCC1OC(n2c(C)c(C(C)=O)c(-c3ccco3)c(C#N)c2=S)C(OC(C)=O)C(OC(C)=O)C1OC(C)=O` (stereo not given), the GI50 in the test with SK-OV-3, in the test with SF-295, with MDA-MB-435, in the test on COLO 205, in the test with NCI-H23 and with NCI-H522 was > 100 µM (inactive) throughout. Further, the GI50 is > 100 µM (inactive) in the test on DU-145; > 100 µM (inactive) in the test with OVCAR-3; > 100 µM (inactive) with A549; > 100 µM (inactive) with SNB-19; 15.6 µM (inactive) in the test on HOP-92; > 100 µM (inactive) and 53.2 µM (inactive) with CCRF-CEM. For the same compound, the GI50 in the test on SN12C is > 100 µM (inactive); with SF-268, > 100 µM (inactive); in the test with SW-620, > 100 µM (inactive); in the test with A498, 85.1 µM (inactive).

In the case of `S=C(Nc1ccc(Cl)cc1)c1ccc(CN2CCCCC2)s1`, the GI50 with OVCAR-4 was 12.5 µM (inactive); in the test on MDA-MB-435, 4.03 µM (inactive); in the test on COLO 205 it was 2.68 µM (inactive); in the test with SK-MEL-2 it was 25.1 µM (inactive); in the test with NCI-H23 it was 3.35 µM (inactive); with NCI-H522 it was 21.9 µM (inactive). The GI50 in the test with DU-145 is 19.8 µM (inactive); in the test on OVCAR-3, 31.1 µM (inactive); with A549, 0.811 µM (active); with CCRF-CEM, 3.17 µM (inactive); in the test with SN12C it was 11.9 µM (inactive); in the test with SF-268, 36.3 µM (inactive). Also, the GI50 was 4.4 µM (inactive) in the test on SW-620 and 10.8 µM (inactive) with A498.

As for `CCn1c(=O)ccc2ccc(N(CCO)CCO)nc21`, the GI50 with SK-OV-3, in the test on SF-295, with OVCAR-4, with MDA-MB-435, in the test with COLO 205 and with SK-MEL-2 was > 100 µM (inactive) throughout. Also, the GI50 with NCI-H23, in the test with NCI-H522, in the test with DU-145, in the test on OVCAR-3, with A549 and with SNB-19 was > 100 µM (inactive) throughout. Besides, the GI50 in the test on CCRF-CEM, in the test with SN12C, with SF-268, in the test with SW-620 and with A498 was > 100 µM (inactive) throughout.
